{
  "source": "patent US20240335456A1",
  "about": "“CO-CRYSTAL COMPOSITION AND ITS PHARMACEUTICAL USE” (SYN-NAT PRODUCTS ENTERPRISE LLC, priority 2015, published 2024)",
  "key": {"[1]": {"system": "benign prostatic hyperplasia (BPH)", "assay": "Mouse model of BPH (white cell number, lecithin density, prostate tissue)", "format": "in vivo", "description": "In the BPH model group (FIG. 7), glands proliferation and a small amount of lymphocytes and plasma cells were shown."}, "[2]": {"system": "Human fibroblast-like synoviocytes rheumatoid arthritis (HFLS-RA) cells", "assay": "HFLS-RA cell proliferation (cell numbers 48 hours after treatment)", "format": "cell-based", "protocol": "Human fibroblast-like synoviocytes rheumatoid arthritis (HFLS-RA) cells were cultured in vitro and proliferation of the cells was measured by quantifying cells numbers 48 hours after treatment. The cells were treated with DCP at concentrations of 1.563 μg/ml; 3.125 μg/ml; 6.25 μg/ml; 12.5 μg/ml; 25 μg/ml; 50 μg/ml; or 100 μg/ml."}, "[3]": {"system": "Human MH7A synovial cells", "assay": "MH7A synovial cell proliferation (cell numbers 48 hours after treatment)", "format": "cell-based", "protocol": "Human MH7A synovial cells were cultured in vitro and proliferation of the cells was measured by quantifying cells numbers 48 hours after treatment. The cells were treated with DCP at concentrations of 1.563 μg/ml; 3.125 μg/ml; 6.25 μg/ml; 12.5 μg/ml; 25 μg/ml; 50 μg/ml; or 100 μg/ml."}, "nonbacterial prostatitis": {"system": "nonbacterial prostatitis", "assay": "Mouse model for prostatitis, prostate tissue pathology", "format": "in vivo", "description": "Mouse model for prostatitis was utilized to study the effects of DCP."}, "[4]": {"system": "benign prostatic hyperplasia (BPH)", "assay": "Study of DCP in male cancer patients also suffering from BPH", "format": "in vivo, human"}, "[5]": {"system": "rheumatoid arthritis, osteoarthritis, arthrolithiasis (gout)", "assay": "Phase II and Phase III clinical trials in SCLC patients also suffering from rheumatoid arthritis, osteoarthritis, gout and other diseases", "format": "in vivo, human", "conditions": "DCP 1 to about 10 mg/kg body weight", "protocol": "DCP alleviated symptoms for clinical trial patients suffering from multiple diseases. In China, DCP (1 to about 10 mg/kg body weight) in combination with cisplatin and Paclitaxel were used in Phase II and Phase III clinical trials for treatment of patients having small cell lung cancer (SCLC). The cancer patients were simultaneously suffering from a number of proliferative diseases, degenerative diseases, immunological diseases, and other diseases as indicated above. For example, some of the patients were suffering from rheumatoid arthritis, osteoarthritis, arthrolithiasis (gout) and/or other diseases. […] Such diseases include at least rheumatoid arthritis, osteoarthritis, and arthrolithiasis (gout). […] When DCP was administered with an additional therapeutic agent or adjuvant therapy agent such as folic acid, coenzyme Q10, curcumin, glutathione (GSH), aloe vera, oryzanol, 5-fluorouracil, bortezomib, the effects to reduce disease symptoms were further enhanced."}, "[6]": {"conditions": "Phase I dose-escalation, Chinese cancer patients; cited from earlier work"}, "[7]": {"conditions": "48 hours after treatment, 1.563-100 μg/ml"}, "[8]": {"conditions": "majority of BPH patients, after two weeks of use"}},
  "note": "Several values for one entry are separate records, joined by “and”; a condition that tells them apart may be missing. Identical values can stand only once.",
  "data": [
    {"compound": "CC(C)(C)NC(=O)[C@H]1CC[C@H]2[C@@H]3CC[C@H]4NC(=O)C=C[C@]4(C)[C@H]3CC[C@]12C", "note": "[PROSCAR, Finasteride, reference compound]", "values": [
      {"measurement": "Prostate tissue findings (inflammation cells, glandular proliferation)", "setting": "[1]; PROSCAR drug group, FIG. 8", "value": "glandular proliferation was not clear, but inflammation cells were reduced"}
    ]},
    {"compound": "Dicycloplatin [DCP]", "values": [
      {"measurement": "IC50, inhibition of HFLS-RA cell proliferation", "setting": "[2]; [7]", "value": "3.914 µg/mL and 3.125 µg/mL"},
      {"measurement": "HFLS-RA cell proliferation inhibited", "setting": "[2]; FIG. 1", "value": 99, "unit": "%"},
      {"measurement": "IC50, inhibition of MH7A cell proliferation", "setting": "[3]; [7]", "value": "8.926 µg/mL and 8.92 µg/mL"},
      {"measurement": "MH7A cell proliferation inhibited", "setting": "[3]; FIG. 2", "value": 99, "unit": "%"},
      {"measurement": "Effective amount for human, based on the effective amount in mice", "setting": "nonbacterial prostatitis; extrapolated from mouse prostatitis model", "value": "1 to 10", "unit": "mg/Kg body weight"},
      {"measurement": "Outcome of mice with nonbacterial prostatitis", "setting": "nonbacterial prostatitis; treatment for 1-2 weeks", "value": "returned to normal"},
      {"measurement": "Granulomatous lesions in prostate tissue", "setting": "nonbacterial prostatitis; treatment for one week, FIG. 5", "value": "significantly reduced in some tissues or eliminated in others"},
      {"measurement": "Inflammatory cells in interstitial infiltration", "setting": "nonbacterial prostatitis; treatment for one week, FIG. 5", "value": "significantly reduced"},
      {"measurement": "Lecithin corpuscle (density)", "setting": "[1]; DCP injection", "value": "30 ± 0.53"},
      {"measurement": "White cell (number/μL)", "setting": "[1]; DCP injection", "value": "3250 ± 65", "unit": "number/μL"},
      {"measurement": "Lecithin corpuscle (density)", "setting": "[1]; DCP oral", "value": "27 ± 0.50"},
      {"measurement": "White cell (number/μL)", "setting": "[1]; DCP oral", "value": "3500 ± 71", "unit": "number/μL"},
      {"measurement": "Enlargement of prostate", "setting": "[1]; after treatment for a therapeutic period", "value": "significant inhibited"},
      {"measurement": "Prostate tissue findings (inflammatory cells, glandular proliferation)", "setting": "[1]; intravenous administration, FIG. 9", "value": "inflammatory cells were significantly reduced, and glandular proliferation was inhibited"},
      {"measurement": "Prostate tissue findings (inflammatory cells, glandular proliferation)", "setting": "[1]; oral administration, FIG. 10", "value": "inflammatory cells were significantly reduced and glandular proliferation was inhibited"},
      {"measurement": "Enlargement of prostate", "setting": "[4]; [8]", "value": "obviously inhibited"},
      {"measurement": "Maximum of urinary volume", "setting": "[4]; [8]", "value": "more than 12 mL/s"},
      {"measurement": "PSA", "setting": "[4]; [8]", "value": "decreased"},
      {"measurement": "Symptoms of BPH", "setting": "[4]; male patients with cancers and BPH", "value": "significantly alleviated"},
      {"measurement": "Side effects", "setting": "[5]", "value": "less patients receiving DCP alone were suffering from side effects and the side effects were of less severity"},
      {"measurement": "Symptoms of proliferative, degenerative, immunological and other diseases", "setting": "[5]", "value": "significantly alleviated the symptoms"},
      {"measurement": "Tolerated doses", "setting": "[6]", "value": "100 to 550", "unit": "mg/m^2"}
    ]}
  ]
}
